Laboratory results reported in publication PMC6332596 (Journal of Hematology & Oncology, 2019).
Where two headings read alike, the source gives them in different places.

Assays:
[1] = Pharmacokinetics of plasma chiauranib after single and multiple oral doses in patients (LC-MS/MS); assay type: in vivo, human
Method: Three milliliters of venous blood samples was drawn into heparinized tubes before drug administration as well as at 1, 2, 4, 6, 8, 12, 24, 48, 72, 96, 120, and 144 h post-dose. […] Three milliliters of venous blood samples was drawn into heparinized tubes before administration as well as at 1, 2, 4, 8, 12, and 24 h post the oral dose on day 28. […] Samples were centrifuged immediately at 3600×g for 10 min at 4 °C, and the plasma fractions were separated and stored at − 20 °C until analysis.
The intra- and inter-day precisions and accuracies (relative standard deviation, %RSD) were in the range of 1.75–6.33%, and − 7.88–9.00%, respectively. The extraction recovery (relative standard deviation, %RSD) was 1.32–5.16%.
Descriptive statistics were used for baseline characteristics, safety assessments, pharmacokinetic variables (including Cmax, Tmax, AUC, and t1/2) and exploratory efficacy assessments, including tumor response and time to progression. Continuous variables were summarized with means, standard deviations (SD), medians, minimums, and maximums. Categorical variables were summarized by counts and by percentage of patients in corresponding categories. P values < 0.05 were considered statistically significant. Statistical analyses were performed using SAS® v9.4 (Cary, NC).

VEGFR2 = system: VEGFR2; design: method as in PMID 28004478; conditions: cited from earlier work
VEGFR1 = system: VEGFR1; design: method as in PMID 28004478; conditions: cited from earlier work
VEGFR3 = system: VEGFR3; design: method as in PMID 28004478; conditions: cited from earlier work
c-Kit = system: c-Kit; design: method as in PMID 28004478; conditions: cited from earlier work
Aurora B = system: Aurora B; design: method as in PMID 28004478; conditions: cited from earlier work
CSF-1R = system: CSF-1R; design: method as in PMID 28004478; conditions: cited from earlier work
[2] = system: off-target non-receptor kinases, proteins, GPCR, and ion channels; design: method as in PMID 28004478; conditions: cited from earlier work
[3] = system: human tumor xenograft models inoculated with human cancer cell lines derived from colon, lung, liver, or stomach cancers; design: method as in PMID 28004478; conditions: cited from earlier work
[4] = Day28, multiple dose 10 mg once daily (n = 2)
[5] = Day28, multiple dose 20 mg once daily (n = 6)
[6] = Day28, multiple dose 35 mg once daily (n = 3)
[7] = Day28, multiple dose 50 mg once daily (n = 3)
[8] = Day28, multiple dose 65 mg once daily (n = 4)
[9] = human, plasma, oral, 10 mg, Day1, single dose 10 mg (n = 2)
[10] = human, plasma, oral, 10 mg, Day28, multiple dose 10 mg once daily (n = 2)
[11] = human, plasma, oral, 20 mg, Day1, single dose 20 mg (n = 6)
[12] = human, plasma, oral, 20 mg, Day28, multiple dose 20 mg once daily (n = 6)
[13] = human, plasma, oral, 35 mg, Day1, single dose 35 mg (n = 3)
[14] = human, plasma, oral, 35 mg, Day28, multiple dose 35 mg once daily (n = 3)
[15] = human, plasma, oral, 50 mg, Day1, single dose 50 mg (n = 3)
[16] = human, plasma, oral, 50 mg, Day28, multiple dose 50 mg once daily (n = 3)
[17] = human, plasma, oral, 65 mg, Day1, single dose 65 mg (n = 4)
[18] = human, plasma, oral, 65 mg, Day28, multiple dose 65 mg once daily (n = 4)

COc1ccc2c(Oc3ccc4c(C(=O)Nc5ccccc5N)cccc4c3)ccnc2c1 [chiauranib]
dose dependence of plasma exposure ([1]; 10 to 65 mg, single and multiple dose): dose proportional and good linear pharmacokinetic profile | Cav [1, 4]: 174 (9) ng/mL | Ctrough [1, 4]: 122 (21) ng/mL | DF [1, 4]: 1.1 (0.4) | Cav [1, 5]: 257 (64) ng/mL | Ctrough [1, 5]: 191 (89) ng/mL | DF [1, 5]: 1.3 (0.6) | Cav [1, 6]: 490 (336) ng/mL | Ctrough [1, 6]: 330 (208) ng/mL | DF [1, 6]: 0.8 (0.4) | Cav [1, 7]: 604 (235) ng/mL | Ctrough [1, 7]: 467 (166) ng/mL | DF [1, 7]: 1.1 (0.3) | Cav [1, 8]: 1010 (492) ng/mL | Ctrough [1, 8]: 890 (662) ng/mL | DF [1, 8]: 1.5 (0.8) | median peak time ([1]; after first dose in run-in period, 10-65 mg, range from 1 to 4 h): 2 h | increase of trough plasma concentration versus after first administration ([1]; continuous once daily dosing): twofold | Cmax [1, 9]: 201 ng/mL | Tmax [1, 9]: 2 h | AUC(0-t) ([1]; human, plasma, oral, 10 mg, Day1, single dose 10 mg (n = 2), read-out: AUC0–24 h): 2000 ng·h/mL | AUC(0-t) ([1]; human, plasma, oral, 10 mg, Day1, single dose 10 mg (n = 2), read-out: AUC0–144 h): 3580 ng·h/mL | Cmax [1, 10]: 312 ng/mL | Tmax [1, 10]: 2 h | AUC(0-t) ([1]; human, plasma, oral, 10 mg, Day28, multiple dose 10 mg once daily (n = 2), read-out: AUC0–24 h): 4180 ng·h/mL | Cmax [1, 11]: 354 ng/mL | Tmax [1, 11]: 2 h | AUC(0-t) ([1]; human, plasma, oral, 20 mg, Day1, single dose 20 mg (n = 6), read-out: AUC0–24 h): 3450 ng·h/mL | AUC(0-t) ([1]; human, plasma, oral, 20 mg, Day1, single dose 20 mg (n = 6), read-out: AUC0–144 h): 6820 ng·h/mL | Cmax [1, 12]: 517 ng/mL | Tmax [1, 12]: 2 h | AUC(0-t) ([1]; human, plasma, oral, 20 mg, Day28, multiple dose 20 mg once daily (n = 6), read-out: AUC0–24 h): 6180 ng·h/mL | Cmax [1, 13]: 608 ng/mL | Tmax [1, 13]: 1 h | AUC(0-t) ([1]; human, plasma, oral, 35 mg, Day1, single dose 35 mg (n = 3), read-out: AUC0–24 h): 5760 ng·h/mL | AUC(0-t) ([1]; human, plasma, oral, 35 mg, Day1, single dose 35 mg (n = 3), read-out: AUC0–144 h): 11900 ng·h/mL | Cmax [1, 14]: 773 ng/mL | Tmax [1, 14]: 4 h | AUC(0-t) ([1]; human, plasma, oral, 35 mg, Day28, multiple dose 35 mg once daily (n = 3), read-out: AUC0–24 h): 11800 ng·h/mL | Cmax [1, 15]: 756 ng/mL | Tmax [1, 15]: 1 h | AUC(0-t) ([1]; human, plasma, oral, 50 mg, Day1, single dose 50 mg (n = 3), read-out: AUC0–24 h): 7420 ng·h/mL | AUC(0-t) ([1]; human, plasma, oral, 50 mg, Day1, single dose 50 mg (n = 3), read-out: AUC0–144 h): 16400 ng·h/mL | Cmax [1, 16]: 1120 ng/mL | Tmax [1, 16]: 2 h | AUC(0-t) ([1]; human, plasma, oral, 50 mg, Day28, multiple dose 50 mg once daily (n = 3), read-out: AUC0–24 h): 14500 ng·h/mL | Cmax [1, 17]: 1280 ng/mL | Tmax [1, 17]: 1.5 h | AUC(0-t) ([1]; human, plasma, oral, 65 mg, Day1, single dose 65 mg (n = 4), read-out: AUC0–24 h): 11000 ng·h/mL | AUC(0-t) ([1]; human, plasma, oral, 65 mg, Day1, single dose 65 mg (n = 4), read-out: AUC0–144 h): 24800 ng·h/mL | Cmax [1, 18]: 2240 ng/mL | Tmax [1, 18]: 2 h | AUC(0-t) ([1]; human, plasma, oral, 65 mg, Day28, multiple dose 65 mg once daily (n = 4), read-out: AUC0–24 h): 24200 ng·h/mL | half-life ([1]; human, plasma, oral, after first dose in run-in period, 10-65 mg, read-out: terminal half-life (t1/2) (converted)): 25.6 ± 6.73 h | IC50 (VEGFR2): single-digit nanomolar range | IC50 (VEGFR1): single-digit nanomolar range | IC50 (VEGFR3): single-digit nanomolar range | IC50 (c-Kit): single-digit nanomolar range | IC50 (Aurora B): single-digit nanomolar range | IC50 (CSF-1R): single-digit nanomolar range | activity on off-targets [2]: little activity | activity against human tumor xenograft models [3]: broad activity
